The text below walks through data of patent US9913916B2, “Asymmetric bifunctional silyl monomers and particles thereof as prodrugs and delivery vehicles for pharmaceutical, chemical and biological agents” (The University of North Carolina at Chapel Hill, priority 2010, dated 2018).

The structures appear in SMILES notation.

This series is classed as physicochemical. On the procedure: A model degradation of an ABS pro-drug of gemcitabine attached via a di-isopropyl silyl ether linkage (iPr-GEM) was conducted.
Asymmetric bifunctional silyl ether pro-drugs were synthesized and analyzed as potential materials for controlled drug delivery in nanoparticles. Using one-step synthesis, numerous pro-drugs from the chemotherapeutics camptothecin, dasatinib, and gemcitabine were prepared. These ABS pro-drugs were placed under acidic conditions, such as those found […], and subsequent to degradation of the reversible covalent linkage(s), the pro-drug reverted back to the original active form of the chemotherapeutic. […] The rate of release increased as the steric bulk of the substituent on the Si atom decreased; Rate of Release: Et-GEM>iPr-GEM>>tBu-GEM). […] These ABS pro-drugs can be incorporated into nanoparticles and medical devices capable of releasing drugs in a controlled and tunable fashion.

For the molecule `C=CC(=O)OCCO[Si](CC)(CC)O[C@]1(CC)C(=O)OCc2c1cc1n(c2=O)Cc2cc3ccccc3nc2-1` [Et-CPT, Diethyl ABS of Camptothecin], the “degradation of silyl ether linkage on exposure to acid” value is “degraded to yield both unmodified camptothecin and HEA”.

As for `C=CC(=O)OCCO[Si](OC[C@H]1O[C@@H](n2ccc(N)nc2=O)C(F)(F)[C@@H]1O)(C(C)C)C(C)C` [iPr-GEM, Diisopropyl ABS of Gemcitabine], the “degradation of silyl ether linkage on exposure to acid” value was “acid sensitive and reverts back to the original starting materials”.
